The numbers were not newly measured in article PMC7582876, “Antiproliferative Properties of a Few Auranofin-Related Gold(I) and Silver(I) Complexes in Leukemia Cells and their Interferences with the Ubiquitin Proteasome System” (Molecules, 2020), which cites them from elsewhere.

The data set has as its system CEM/ADR5000 cells. The arrangement: method as in PMID 18413831. As to conditions: ref [27]; cited from earlier work.

On to `COc1cccc2c1C(=O)c1c(O)c3c(c(O)c1C2=O)C[C@@](O)(C(=O)CO)C[C@@H]3O[C@H]1C[C@H](N)[C@H](O)[C@H](C)O1` [doxorubicin, Doxorubicin], for which the resistance to doxorubicin entry is on record as “more than 1000 fold”.
